Data taken from PubChem BioAssay AID2060486 (Molecular Pharmacology Branch, DTP, NCI, 2025).
pIC50: −log10 of the molar value.

Test system: IGROV1 complex spheroids (HUVEC, MSC), viability % test/control
Experiment: Anticancer human tumor IGROV1 cell line growth inhibition [GQUAD];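 also: spheroids exposed to compounds for 7 days before readout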;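 as to viability, T/C: 100% = DMSO vehicle control viability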
Details: for pIC50: curve of first compound; for viability, T/C: stronger effect = lower value
Outline: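 Viability of tumor cells grown as complex spheroids with endothelial and stromal cells, exposed to drug combinations. Top concentration at or near clinical Cmax (else 10 microM), diluted in half-log increments.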

[1] = second compound 0.0316 µM, first compound 0.0316 µM
[2] = second compound 0.0316 µM, first compound 0.316 µM
[3] = second compound 0.1 µM, first compound 0.0316 µM
[4] = second compound 0.1 µM, first compound 0.316 µM
[5] = second compound 0.316 µM, first compound 0.0316 µM
[6] = second compound 0.316 µM, first compound 0.316 µM
[7] = second compound 1 µM, first compound 0.0316 µM
[8] = second compound 1 µM, first compound 0.316 µM
[9] = second compound 3.16 µM, first compound 0.0316 µM
[10] = second compound 3.16 µM, first compound 0.316 µM
[11] = second compound 10 µM, first compound 0.0316 µM
[12] = second compound 10 µM, first compound 0.316 µM
[13] = second compound 0.0316 µM, first compound 0.000999 µM
[14] = second compound 0.0316 µM, first compound 0.00316 µM
[15] = second compound 0.0316 µM, first compound 0.00999 µM
[16] = second compound 0.0316 µM, first compound 0.0999 µM
[17] = second compound 0.1 µM, first compound 0.000999 µM
[18] = second compound 0.1 µM, first compound 0.00316 µM
[19] = second compound 0.1 µM, first compound 0.00999 µM
[20] = second compound 0.1 µM, first compound 0.0999 µM
[21] = second compound 0.316 µM, first compound 0.000999 µM
[22] = second compound 0.316 µM, first compound 0.00316 µM
[23] = second compound 0.316 µM, first compound 0.00999 µM
[24] = second compound 0.316 µM, first compound 0.0999 µM
[25] = second compound 1 µM, first compound 0.000999 µM
[26] = second compound 1 µM, first compound 0.00316 µM
[27] = second compound 1 µM, first compound 0.00999 µM
[28] = second compound 1 µM, first compound 0.0999 µM
[29] = second compound 3.16 µM, first compound 0.000999 µM
[30] = second compound 3.16 µM, first compound 0.00316 µM
[31] = second compound 3.16 µM, first compound 0.00999 µM
[32] = second compound 3.16 µM, first compound 0.0999 µM
[33] = second compound 10 µM, first compound 0.000999 µM
[34] = second compound 10 µM, first compound 0.00316 µM
[35] = second compound 10 µM, first compound 0.00999 µM
[36] = second compound 10 µM, first compound 0.0999 µM

SMILES: C=CC(=O)N1CCN(c2nc(=O)n(-c3c(C)ccnc3C(C)C)c3nc(-c4c(O)cccc4F)c(F)cc23)C(C)C1 (stereo unspecified) + Cc1[nH]c2ccc(F)cc2c1-c1nc2c3cccnc3c3ncccc3c2[nH]1
- pIC50 (second compound 0.0316 µM): < 5.00
- pIC50 (second compound 0.1 µM): < 5.00
- pIC50 (second compound 0.316 µM): < 5.00
- pIC50 (second compound 1 µM): > 7.50
- pIC50 (second compound 3.16 µM): > 7.50
- pIC50 (second compound 10 µM): > 7.50
- viability, T/C [1]: 104%
- viability, T/C (second compound 0.0316 µM, first compound 0.1 µM): 70.5%
- viability, T/C [2]: 103%
- viability, T/C (second compound 0.0316 µM, first compound 1 µM): 45.8%
- viability, T/C (second compound 0.0316 µM, first compound 3.16 µM): 94.8%
- viability, T/C (second compound 0.0316 µM, first compound 10 µM): 87.5%
- viability, T/C [3]: 90.2%
- viability, T/C (second compound 0.1 µM, first compound 0.1 µM): 89.7%
- viability, T/C [4]: 80.6%
- viability, T/C (second compound 0.1 µM, first compound 1 µM): 75.1%
- viability, T/C (second compound 0.1 µM, first compound 3.16 µM): 92.8%
- viability, T/C (second compound 0.1 µM, first compound 10 µM): 99.2%
- viability, T/C [5]: 70.5%
- viability, T/C (second compound 0.316 µM, first compound 0.1 µM): 93.9%
- viability, T/C [6]: 76.2%
- viability, T/C (second compound 0.316 µM, first compound 1 µM): 78.9%
- viability, T/C (second compound 0.316 µM, first compound 3.16 µM): 80%
- viability, T/C (second compound 0.316 µM, first compound 10 µM): 56.8%
- viability, T/C [7]: 3.43%
- viability, T/C (second compound 1 µM, first compound 0.1 µM): 3.79%
- viability, T/C [8]: 6.26%
- viability, T/C (second compound 1 µM, first compound 1 µM): 4.23%
- viability, T/C (second compound 1 µM, first compound 3.16 µM): 4.27%
- viability, T/C (second compound 1 µM, first compound 10 µM): 2.01%
- viability, T/C [9]: 3.63%
- viability, T/C (second compound 3.16 µM, first compound 0.1 µM): 4.79%
- viability, T/C [10]: 4.74%
- viability, T/C (second compound 3.16 µM, first compound 1 µM): 4.03%
- viability, T/C (second compound 3.16 µM, first compound 3.16 µM): 4.45%
- viability, T/C (second compound 3.16 µM, first compound 10 µM): 2.13%
- viability, T/C [11]: 4.57%
- viability, T/C (second compound 10 µM, first compound 0.1 µM): 4.39%
- viability, T/C [12]: 4.91%
- viability, T/C (second compound 10 µM, first compound 1 µM): 5.12%
- viability, T/C (second compound 10 µM, first compound 3.16 µM): 4.17%
- viability, T/C (second compound 10 µM, first compound 10 µM): 2.46%

SMILES: CC[C@@]1(O)C(=O)OCc2c1cc1n(c2=O)Cc2cc3c(CN(C)C)c(O)ccc3nc2-1 + Cc1[nH]c2ccc(F)cc2c1-c1nc2c3cccnc3c3ncccc3c2[nH]1
- pIC50 (second compound 0.0316 µM): 7.58
- pIC50 (second compound 0.1 µM): 7.64
- pIC50 (second compound 0.316 µM): 8.04
- pIC50 (second compound 1 µM): > 9.00
- pIC50 (second compound 3.16 µM): > 9.00
- pIC50 (second compound 10 µM): > 9.00
- viability, T/C [13]: 99.8%
- viability, T/C [14]: 73.2%
- viability, T/C [15]: 92.3%
- viability, T/C [1]: 42.7%
- viability, T/C [16]: 10.9%
- viability, T/C [2]: 10.8%
- viability, T/C [17]: 96.9%
- viability, T/C [18]: 77.7%
- viability, T/C [19]: 94.9%
- viability, T/C [3]: 35%
- viability, T/C [20]: 10.7%
- viability, T/C [4]: 11.1%
- viability, T/C [21]: 93.1%
- viability, T/C [22]: 58.5%
- viability, T/C [23]: 56.9%
- viability, T/C [5]: 34.6%
- viability, T/C [24]: 9.45%
- viability, T/C [6]: 10.2%
- viability, T/C [25]: 4.53%
- viability, T/C [26]: 5.2%
- viability, T/C [27]: 3.92%
- viability, T/C [7]: 4.65%
- viability, T/C [28]: 5.01%
- viability, T/C [8]: 4.15%
- viability, T/C [29]: 4.32%
- viability, T/C [30]: 4.59%
- viability, T/C [31]: 4.67%
- viability, T/C [9]: 4.52%
- viability, T/C [32]: 4.31%
- viability, T/C [10]: 2.77%
- viability, T/C [33]: 4.73%
- viability, T/C [34]: 3.46%
- viability, T/C [35]: 4.25%
- viability, T/C [11]: 4.75%
- viability, T/C [36]: 4.66%
- viability, T/C [12]: 3.29%

SMILES: CCc1c2c(nc3ccc(O)cc13)-c1cc3c(c(=O)n1C2)COC(=O)[C@]3(O)CC + Cc1[nH]c2ccc(F)cc2c1-c1nc2c3cccnc3c3ncccc3c2[nH]1
- pIC50 (second compound 0.0316 µM): 8.91
- pIC50 (second compound 0.1 µM): 8.91
- pIC50 (second compound 0.316 µM): > 9.00
- pIC50 (second compound 1 µM): > 9.00
- pIC50 (second compound 3.16 µM): > 9.00
- pIC50 (second compound 10 µM): > 9.00
- viability, T/C [13]: 57.7%
- viability, T/C [14]: 15.4%
- viability, T/C [15]: 10.2%
- viability, T/C [1]: 6.35%
- viability, T/C [16]: 4.8%
- viability, T/C [2]: 1.3%
- viability, T/C [17]: 58%
- viability, T/C [18]: 12.6%
- viability, T/C [19]: 10.4%
- viability, T/C [3]: 6.87%
- viability, T/C [20]: 4.33%
- viability, T/C [4]: 1.74%
- viability, T/C [21]: 36%
- viability, T/C [22]: 18.3%
- viability, T/C [23]: 10.3%
- viability, T/C [5]: 7.63%
- viability, T/C [24]: 4.58%
- viability, T/C [6]: 1.81%
- viability, T/C [25]: 4.92%
- viability, T/C [26]: 3.7%
- viability, T/C [27]: 3.69%
- viability, T/C [7]: 2.84%
- viability, T/C [28]: 2.04%
- viability, T/C [8]: 0.8%
- viability, T/C [29]: 4.87%
- viability, T/C [30]: 4.58%
- viability, T/C [31]: 3.82%
- viability, T/C [9]: 3.33%
- viability, T/C [32]: 1.4%
- viability, T/C [10]: 0.62%
- viability, T/C [33]: 4.11%
- viability, T/C [34]: 3.78%
- viability, T/C [35]: 4.08%
- viability, T/C [11]: 3.15%
- viability, T/C [36]: 1.92%
- viability, T/C [12]: 0.73%
